Here are results for nine compounds from patent US9447091B2, “Protein kinase inhibitors” (Orion Corporation, priority 2011, dated 2016).

What is called inhibition is the percentage by which the read-out fell short of the control. High values mean a response far below the control, low ones a response near the control. Broadly, the pIC50 is −log10 of the IC50, conventionally taken in molar units.

pIC50: −log10 of the molar value.

In one assay the target is c-Met kinase (Homo sapiens (Human), UniProt P08581). Nature of the assay: c-Met TR-FRET kinase assay. Format: biochemical. To be noted: 1000 nM compound. The method, then: Compounds were screened in the TR-FRET assay with c-Met kinase. 0.1 ng of c-Met [expressed in-house] kinase was used for assay. The compound was incubated with the kinase for 60 min at RT. After the incubation, substrate mix [40 nM Ultra light poly GT (Perkin Elmer, USA) and 10 μM ATP (Sigma)] was added. The above reaction was stopped by the addition of 40 mM EDTA after the 30 min kinase reaction. The Eu-labelled antiphospho-tyrosine antibody [Perkin Elmer, USA] was added at 0.5 nM and the fluorescence emission at 615 nm/665 nm [excitation at 340 nm] was measured. The compounds were initially screened at 100 nM and 1 μM concentrations. The compounds with >50% inhibition at 100 nM of c-Met were taken for the full dose response studies. The final DMSO concentration in the assay was 1%. For IC50 determination, ⅓rd serial dilution was made from the 20 mM DMSO stock solution. 2 μl of these were transferred to the test wells containing 20 μl reaction mixture [total reaction volume 20 μl]. The fluorescence was measured in Perkin Elmer Wallac 1420 Multilabel Counter Victor 3. The IC50 was determined by fitting the dose response data to sigmoidal curve fitting equation using GraphPad Prism software V5.
c-Met kinase, sequence (P08581 25-1390): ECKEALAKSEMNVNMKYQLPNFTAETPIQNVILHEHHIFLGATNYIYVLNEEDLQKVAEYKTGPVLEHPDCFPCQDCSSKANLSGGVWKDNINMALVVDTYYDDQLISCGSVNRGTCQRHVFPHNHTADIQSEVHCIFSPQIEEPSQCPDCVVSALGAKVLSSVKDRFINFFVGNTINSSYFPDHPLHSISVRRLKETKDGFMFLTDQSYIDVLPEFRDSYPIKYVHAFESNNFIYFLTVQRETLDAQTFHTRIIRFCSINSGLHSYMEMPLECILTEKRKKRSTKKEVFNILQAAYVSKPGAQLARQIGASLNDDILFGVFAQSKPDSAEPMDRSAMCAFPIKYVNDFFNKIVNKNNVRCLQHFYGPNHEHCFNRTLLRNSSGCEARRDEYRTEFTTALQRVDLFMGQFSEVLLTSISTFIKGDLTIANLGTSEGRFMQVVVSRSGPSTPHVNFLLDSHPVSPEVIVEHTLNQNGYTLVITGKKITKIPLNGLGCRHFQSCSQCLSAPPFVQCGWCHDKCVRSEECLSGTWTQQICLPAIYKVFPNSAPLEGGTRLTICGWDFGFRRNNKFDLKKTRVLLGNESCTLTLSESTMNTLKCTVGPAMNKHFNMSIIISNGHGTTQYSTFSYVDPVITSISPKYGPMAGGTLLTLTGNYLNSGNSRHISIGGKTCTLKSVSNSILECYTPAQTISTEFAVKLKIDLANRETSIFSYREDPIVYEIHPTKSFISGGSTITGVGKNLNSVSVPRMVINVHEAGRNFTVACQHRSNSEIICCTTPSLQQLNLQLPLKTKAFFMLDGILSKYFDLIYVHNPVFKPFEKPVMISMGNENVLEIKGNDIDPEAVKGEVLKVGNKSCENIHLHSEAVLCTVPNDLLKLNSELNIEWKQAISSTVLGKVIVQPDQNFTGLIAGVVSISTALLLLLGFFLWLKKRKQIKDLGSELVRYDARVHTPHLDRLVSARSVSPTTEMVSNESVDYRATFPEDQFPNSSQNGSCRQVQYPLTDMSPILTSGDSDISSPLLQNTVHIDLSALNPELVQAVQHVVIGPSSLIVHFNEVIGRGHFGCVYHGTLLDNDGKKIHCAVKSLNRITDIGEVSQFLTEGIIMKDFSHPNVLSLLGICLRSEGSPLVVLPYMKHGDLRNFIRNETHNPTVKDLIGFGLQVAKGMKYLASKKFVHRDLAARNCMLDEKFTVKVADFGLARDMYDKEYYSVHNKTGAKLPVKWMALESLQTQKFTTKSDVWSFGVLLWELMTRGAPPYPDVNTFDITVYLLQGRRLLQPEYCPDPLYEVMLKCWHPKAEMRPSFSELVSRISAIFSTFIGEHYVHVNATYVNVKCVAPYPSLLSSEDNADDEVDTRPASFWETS
On the technique in general: In TR-FRET formats the signal depends on donor and acceptor labels being close together.

In the next assay the target is FGFR1 kinase (Homo sapiens (Human), UniProt P11362). Nature of the assay: FGFR1 TR-FRET kinase assay. Format: biochemical. Particulars: for inhibition at 1 µM: 1000 nM compound; for pIC50: 13 μM ATP, read-out: IC50 of FGFR1 inhibition. The method, then:
Compounds were screened in the TR-FRET assay with FGFR1 kinase. 5 ng of FGFR1 [Upstate, USA] kinase was used for assay. The compound was incubated with the kinase for 30 minutes at RT. After the incubation, substrate mix [40 nM Ultra light poly GT (Perkin Elmer, USA) and 13 μM ATP (Sigma)] was added. The above reaction was stopped by the addition of 40 mM EDTA after the […] kinase reaction. The Eu-labelled antiphospho-tyrosine antibody [Perkin Elmer, USA] was added at 0.5 nM and the fluorescence emission at 615 nm/665 nm [excitation at 340 nm] was measured. The compounds were initially screened at 100 nM and 1 μM concentrations. The compounds with >50% inhibition at 100 nM of FGFR1 were taken for the full dose response studies. The final DMSO concentration in the assay was 1%. For IC50 determination, ⅓^rd serial dilution was made from the 20 mM DMSO stock solution. 2 μl of these were transferred to the test wells containing 20 μl of the reaction mixture [total reaction volume 20 μl]. The fluorescence was measured in Perkin Elmer Wallac 1420 Multilabel Counter Victor 3. The IC50 was determined by fitting the dose response data to sigmoidal curve fitting equation using GraphPad Prism software V5.

FGFR1 kinase, sequence (P11362 22-822): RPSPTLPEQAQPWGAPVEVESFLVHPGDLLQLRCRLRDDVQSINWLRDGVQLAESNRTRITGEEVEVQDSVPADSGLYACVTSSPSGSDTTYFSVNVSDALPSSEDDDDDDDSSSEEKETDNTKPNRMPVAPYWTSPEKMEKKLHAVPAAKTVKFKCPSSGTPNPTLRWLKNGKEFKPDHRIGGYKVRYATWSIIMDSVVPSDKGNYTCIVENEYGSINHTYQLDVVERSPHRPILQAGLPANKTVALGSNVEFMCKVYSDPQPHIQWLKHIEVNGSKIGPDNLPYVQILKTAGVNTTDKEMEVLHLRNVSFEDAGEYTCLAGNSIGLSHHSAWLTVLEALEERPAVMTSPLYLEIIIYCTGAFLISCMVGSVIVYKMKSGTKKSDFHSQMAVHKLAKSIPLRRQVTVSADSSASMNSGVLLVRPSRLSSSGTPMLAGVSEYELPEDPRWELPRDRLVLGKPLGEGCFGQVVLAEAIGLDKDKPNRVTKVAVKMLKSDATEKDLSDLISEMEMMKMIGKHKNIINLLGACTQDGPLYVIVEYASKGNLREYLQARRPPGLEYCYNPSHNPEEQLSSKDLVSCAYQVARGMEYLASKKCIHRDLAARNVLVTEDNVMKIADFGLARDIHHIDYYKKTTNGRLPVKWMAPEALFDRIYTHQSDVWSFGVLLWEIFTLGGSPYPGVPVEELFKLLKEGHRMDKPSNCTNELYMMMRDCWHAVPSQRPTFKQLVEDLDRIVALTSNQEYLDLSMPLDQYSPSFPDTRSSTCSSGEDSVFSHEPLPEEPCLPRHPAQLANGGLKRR

As to `CC(C)S(=O)(=O)Nc1cc(-c2ccc(F)cc2F)cc(-n2cnc3cc(-c4cnco4)ccc32)c1` [Example 25, N-(2′,4′-difluoro-5-(5-(oxazol-5-yl)-1H-benzo[d]imidazol-1-yl)biphenyl-3-yl)-propane-2-sulfonamide], the inhibition at 1 µM at c-Met kinase turned out to be 12%. At FGFR1 kinase, testing at 1 µM gave an inhibition of 93% and the pIC50 was 7.47.
The like results for `CC(=O)Nc1cc(-n2cccc2)cc(-n2cnc3cc(-c4cn(CCC(C)(C)O)nn4)ccc32)c1` [Example 112, N-(3-(5-(1-(3-hydroxy-3-methylbutyl)-1H-1,2,3-triazol-4-yl)-1H-benzo[d]-imidazol-1-yl)-5-(1H-pyrrol-1-yl)phenyl)acetamide] were, in that order, 0%, 97% and 8.74.
`O=C(Nc1cc(-c2ccc(F)cc2F)cc(-n2cnc3cc(-n4cccn4)ccc32)c1)NC1CCCC1` [Example 38, 1-(5-(5-(1H-pyrazol-1-yl)-1H-benzo[d]imidazol-1-yl)-2′,4′-difluorobiphenyl-3-yl)-3-cyclopentylurea] showed an inhibition at 1 µM against c-Met kinase of 0%. Also, on FGFR1 kinase, 1 µM produced 88% inhibition and the pIC50 was 7.48.
`CC(=O)Nc1cc(-c2ccc(F)cc2F)cc(-n2cnc3cc(-c4cnn(C)c4)cnc32)c1` [Example 131, N-(2′,4′-difluoro-5-(6-(1-methyl-1H-pyrazol-4-yl)-3H-imidazo[4,5-b]pyridin-3-yl)biphenyl-3-yl)acetamide] returned an inhibition at 1 µM on c-Met kinase of 15%. Also, on FGFR1 kinase, 1 µM produced 99% inhibition and the pIC50 was 8.89.
In turn, `CC(C)S(=O)(=O)Nc1cc(-c2cc(F)ccc2F)cc(-n2cnc3cc(-c4cnn(CCN5CCOCC5)c4)ccc32)c1` [Example 142, N-(2′,5′-difluoro-5-(5-(1-(2-morpholinoethyl)-1H-pyrazol-4-yl)-1H-benzo[d]-imidazol-1-yl)biphenyl-3-yl)propane-2-sulfonamide] displayed an inhibition at 1 µM on c-Met kinase of 0%. For the same compound, at FGFR1 kinase, 1 µM produced 91% inhibition and the pIC50 is 7.32.
The like results for `CC(=O)Nc1cc(-n2cccn2)cc(-n2cnc3cc(-c4cnn(CC5CC5)c4)ccc32)c1` [Example 127, N-(3-(5-(1-(cyclopropylmethyl)-1H-pyrazol-4-yl)-1H-benzo[d]imidazol-1-yl)-5-(1H-pyrazol-1-yl)phenyl)acetamide] were, in that order, 10%, 91% and 7.21.
`CCS(=O)(=O)Nc1cc(-c2ccc(F)cc2F)cc(-n2cnc3cc(-c4cn(CCN5CCOCC5)nn4)ccc32)c1` [Example 49, N-(2′,4′-difluoro-5-(5-(1-(2-morpholinoethyl)-1H-1,2,3-triazol-4-yl)-1H-benzo[d]imidazol-1-yl)biphenyl-3-yl)ethanesulfonamide] had an inhibition at 1 µM on c-Met kinase of 9%. At FGFR1 kinase, the inhibition at 1 µM turned out to be 98% and the negative-log IC50 (pIC50) was 8.47.
Take `Cn1cc(-c2cnc3c(c2)ncn3-c2cc(NS(=O)(=O)c3ccccc3)cc(-c3ccc(F)cc3F)c2)cn1` [Example 134, N-(2′,4′-difluoro-5-(6-(1-methyl-1H-pyrazol-4-yl)-3H-imidazo[4,5-b]pyridin-3-yl)biphenyl-3-yl)benzenesulfonamide]: the inhibition at 1 µM against c-Met kinase came to 0%; on FGFR1 kinase, 92%. Also, the pIC50 on FGFR1 kinase was 7.01.
Compound `CC(=O)Nc1cc(-n2cncn2)cc(-n2cnc3cc(-c4cnn(C)c4)ccc32)c1` [Example 155, N-(3-(5-(1-methyl-1H-pyrazol-4-yl)-1H-benzo[d]imidazol-1-yl)-5-(1H-1,2,4-triazol-1-yl)phenyl)acetamide] returned an inhibition at 1 µM against c-Met kinase of 1%. Moreover, on FGFR1 kinase, the inhibition at 1 µM worked out at 89% and the pIC50 was 7.21.
